Assay results published in PubChem BioAssay (NCI).
“And” between values parts separate entries of the source, which are not always exact repeats. Equal values may be shown once.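 Five compound concentrations were applied to cells in 96-well plates for 48 hours; endpoints were derived by simple linear interpolation of the resulting dose-response curve. GI50 marks 50% less growth. TGI: total growth inhibition.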

How the values were obtained:
Test in all cases: DTP human tumour cell line panel, 48 h
NCI-H23 lung = tested on: NCI-H23 lung
NCI-H460 lung = tested on: NCI-H460 lung
NCI-H522 lung = tested on: NCI-H522 lung
NCI/ADR-RES ovarian = tested on: NCI/ADR-RES ovarian
OVCAR-3 ovarian = tested on: OVCAR-3 ovarian
OVCAR-4 ovarian = tested on: OVCAR-4 ovarian
OVCAR-5 ovarian = tested on: OVCAR-5 ovarian
OVCAR-8 ovarian = tested on: OVCAR-8 ovarian
PC-3 prostate = tested on: PC-3 prostate
RPMI-8226 leukemia = tested on: RPMI-8226 leukemia
RXF 393 renal = tested on: RXF 393 renal
SF-268 CNS = tested on: SF-268 CNS
SF-295 CNS = tested on: SF-295 CNS
SF-539 CNS = tested on: SF-539 CNS
SK-MEL-2 melanoma = tested on: SK-MEL-2 melanoma
SK-MEL-28 melanoma = tested on: SK-MEL-28 melanoma
SK-MEL-5 melanoma = tested on: SK-MEL-5 melanoma
SK-OV-3 ovarian = tested on: SK-OV-3 ovarian
SN12C renal = tested on: SN12C renal
SNB-19 CNS = tested on: SNB-19 CNS
SNB-75 CNS = tested on: SNB-75 CNS
SR leukemia = tested on: SR leukemia
SW-620 colon = tested on: SW-620 colon
T-47D breast = tested on: T-47D breast
TK-10 renal = tested on: TK-10 renal
U251 CNS = tested on: U251 CNS
UACC-257 melanoma = tested on: UACC-257 melanoma
UACC-62 melanoma = tested on: UACC-62 melanoma
UO-31 renal = tested on: UO-31 renal

## Oc1c(I)cc(Cl)c2cccnc12
NCI-H23 lung
  TGI: 31.4 µM and > 100 µM
NCI-H460 lung
  GI50: 3 µM and 5.84 µM
  TGI: > 100 µM and 85.1 µM
NCI-H522 lung
  GI50: 3.93 µM and 14.5 µM
  TGI: 30.2 µM and 36.4 µM
NCI/ADR-RES ovarian
  GI50: 3.21 µM and 4.12 µM
  TGI: 36 µM and 45.7 µM
OVCAR-3 ovarian
  GI50: 5.62 µM and 21.3 µM
  TGI: 65.1 µM and 61.5 µM
OVCAR-4 ovarian
  GI50: 2.82 µM and 4.39 µM
  TGI: 13.8 µM and > 100 µM
OVCAR-5 ovarian
  GI50: 6.43 µM and 13.2 µM
  TGI: 73.5 µM and 49.6 µM
OVCAR-8 ovarian
  GI50: 3.96 µM and 27.2 µM
  TGI: > 100 µM and 99.3 µM
PC-3 prostate
  GI50: 4.37 µM and 4.87 µM
  TGI: 57.5 µM and 81.6 µM
RPMI-8226 leukemia
  GI50: 3.43 µM and 2.86 µM
  TGI: 27.2 µM and 10.8 µM
RXF 393 renal
  GI50: 2.27 µM and 16.8 µM
SF-268 CNS
  GI50: 3.86 µM and 6.22 µM
  TGI: > 100 µM
SF-295 CNS
  GI50: 2.62 µM and 22.2 µM
SF-539 CNS
  GI50: 3.31 µM and 24.3 µM
  TGI: 13.7 µM and 52.6 µM
SK-MEL-2 melanoma
  GI50: 11 µM and 14.7 µM
  TGI: > 100 µM and 41.3 µM
SK-MEL-28 melanoma
  GI50: 3.75 µM and 6.69 µM
  TGI: > 100 µM
SK-MEL-5 melanoma
  GI50: 1.83 µM and 4.12 µM
  TGI: 4.23 µM and 16.1 µM
SK-OV-3 ovarian
  GI50: 6.24 µM and 9.06 µM
  TGI: 22 µM and > 100 µM
SN12C renal
  GI50: 3.27 µM and 4.82 µM
  TGI: > 100 µM and 26.3 µM
SNB-19 CNS
  GI50: 3.71 µM and 9.32 µM
  TGI: > 100 µM
SNB-75 CNS
  GI50: 4.42 µM
  TGI: > 100 µM
SR leukemia
  GI50: 3.15 µM
  TGI: 8.61 µM
SW-620 colon
  GI50: 4.05 µM and 3.73 µM
  TGI: > 100 µM and 32.5 µM
T-47D breast
  GI50: 4.16 µM and 8.7 µM
  TGI: 28.7 µM and > 100 µM
TK-10 renal
  GI50: 31.3 µM and 24 µM
  TGI: > 100 µM and 73.8 µM
U251 CNS
  GI50: 3.9 µM and 3.65 µM
  TGI: > 100 µM and 32.8 µM
UACC-257 melanoma
  GI50: 3.61 µM and 24.5 µM
  TGI: 83.5 µM and 71.5 µM
UACC-62 melanoma
  GI50: 1.81 µM and 2.06 µM
  TGI: 4.56 µM and 5.09 µM
UO-31 renal
  GI50: 2.35 µM and 22.1 µM
  TGI: 11.5 µM and 52.9 µM
